Measured values taken from patent US10351552B2, “Bicyclic antiparasitic compounds” (MediSynergies, LLC, priority 2017, dated 2019).

The molecules below were run on T. brucei brucei clone 427-221a (bloodstream forms) (assay: T. brucei brucei growth inhibition assay). Conditions: Trypanosoma brucei, 40 hours at 37° C., CellTiter-Glo ATP-bioluminescence.
Format: cell-based
Experimental: The growth inhibition assay for T. brucei brucei was conducted as described previously by Z. B. Mackey, et al (Kenny K. H. Ang, Joseline Ratnam, Jiri Gut, Jennifer Legac, Elizabeth Hansell, Zachary B. Mackey, Katarzyna M. Skrzypczynska, Anjan Debnath, Juan C. Engel, Philip J. Rosenthal, James H. McKerrow, Michelle R. Arkin, Adam R. Renslo (2011) “Mining a Cathepsin Inhibitor Library for New Antiparasitic Drug Leads”, PLoS Neglected Tropical Diseases, 5(5):e1023). Bloodstream forms of the monomorphic T. brucei brucei clone 427-221a were grown in complete HMI-9 medium containing 10% FBS, 10% Serum Plus medium (Sigma Inc., St. Louis, Mo., USA), 50 U/mL penicillin and […] (Invitrogen) at 37° C. under a humidified atmosphere and 5% CO2. Inhibitor stocks were prepared in 100% DMSO and screened at […] for percent inhibition values or serially diluted from […] in 10% DMSO for IC50 determinations. […] of diluted parasites ([…]) in sterile Greiner 96-well flat white opaque culture plates such that the final DMSO concentration was 0.5%. The 0% inhibition control wells contained 0.5% DMSO while 100% inhibition control wells contained 50 mM thimerosal (Sigma). After compound addition, plates were incubated for 40 hours at 37° C. At the end of the incubation period, […] of CellTiter-Glo™ reagent (Promega Inc., Madison, Wis., USA) was added to each well and plates were placed on an orbital shaker at room temperature for 2 min to induce lysis. After an additional 10 min of incubation without shaking to stabilize the signal, the ATP-bioluminescence of each well was determined using an Analyst HT plate reader (Molecular Devices, Sunnyvale, Calif., USA). Raw values were converted to log 10 and percentage inhibition calculated relative to the controls. IC50 curve fittings were performed with Prism 4 software as above. Pentamidine was used as a comparator in the assay.
With `CN(C)CCCC1(c2ccc(F)cc2)OCc2cc(-c3cnc4ccccc4c3)ccc21` (stereo not shown) [Example 6, 3-[1-(4-fluorophenyl)]-[5-(quinolin-3-yl)-1,3-dihydro-2-benzofuran-1-yl]-N,N-dimethylpropan-1-amine] the IC50 was 3 µM.
`CN(C)CCCC1(c2ccc(F)cc2)OCc2cc(-c3ccc4scnc4c3)ccc21` (stereo not shown) [Example 3, 3-[1-(4-fluorophenyl)-5-(1,3-benzothiazol-5-yl)-1,3-dihydro-2-benzofuran-1-yl]-N,N-dimethylpropan-1-amine] gave an IC50 of 1.2 µM.
Work on `CN(C)CCCC1(c2ccc(F)cc2)OCc2cc(-c3cc4ccccc4s3)ccc21` (stereo not shown) [Example 4] yielded an IC50 of 0.51 µM.
`CN(C)CCCC1(c2ccc(F)cc2)OCc2cc(-c3ccc4ocnc4c3)ccc21` (stereo not shown) [Example 2, 3-[1-(4-flurophenyl)-5-(1,3-benzoxazol-5-yl)-1,3-dihydro-2-benzofuran-1-yl]-N,N-dimethylpropan-1-amine] was tested, and the IC50 was 0.41 µM.
With `CN(C)CCCC1(c2ccc(F)cc2)OCc2cc(-c3cncc4ccccc34)ccc21` (stereo not shown) [Example 7, 3-[1-(4-fluorophenyl)]-[5-(isoquinolin-4-yl)-1,3-dihydro-2-benzofuran-1-yl]-N,N-dimethylpropan-1-amine] the IC50 was 1 µM.
With `Cc1ccc2oc(-c3ccc4c(c3)COC4(CCCN(C)C)c3ccc(F)cc3)nc2c1` (stereo not shown) [Example 8, 3-[1-(4-fluorophenyl)-5-(5-methyl-1,3-benzoxazol-2-yl)-1,3-dihydro-2-benzofuran-1-yl]-N,N-dimethylpropan-1-amine] the IC50 was 0.11 µM.
In the case of `CN(C)CCCC1(c2ccc(F)cc2)OCc2cc(-c3cccc4[nH]ccc34)ccc21` (stereo not shown) [Example 1, 3-[1-(4-fluorophenyl)-5-(1H-indol-4-yl)-1,3-dihydro-2-benzofuran-1-yl]-N,N-dimethylpropan-1-amine], the IC50 is reported as 1.5 µM.
